From PubChem BioAssay (NCI)
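Interpolation was linear, between the two tested concentrations surrounding the appropriate level; five concentrations were tested over 48 hours in 96-well plates. TGI: concentration producing complete growth inhibition.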

Legend:
Experiment in all cases: inhibition of tumour cell growth, NCI panel, 48 h
[1] = tested on: TK-10 renal
[2] = tested on: SK-OV-3 ovarian
[3] = tested on: M14 melanoma
[4] = tested on: HCT-116 colon
[5] = tested on: SK-MEL-2 melanoma
[6] = tested on: 786-0 renal
[7] = tested on: SF-295 CNS
[8] = tested on: NCI-H226 lung
[9] = tested on: OVCAR-4 ovarian
[10] = tested on: OVCAR-5 ovarian
[11] = tested on: SNB-19 CNS
[12] = tested on: MDA-MB-435
[13] = tested on: EKVX NSCLC
[14] = tested on: SR leukemia
[15] = tested on: HOP-62 NSCLC
[16] = tested on: MDA-N
[17] = tested on: UO-31 renal
[18] = tested on: A549 NSCLC
[19] = tested on: NCI/ADR-RES ovarian
[20] = tested on: HCC-2998 colon
[21] = tested on: IGROV1 ovarian
[22] = tested on: CCRF-CEM leukemia
[23] = tested on: T-47D breast
[24] = tested on: RPMI-8226 leukemia
[25] = tested on: HCT-15 colon
[26] = tested on: SK-MEL-28 melanoma
[27] = tested on: OVCAR-8 ovarian
[28] = tested on: SNB-75 CNS
[29] = tested on: SW-620 colon
[30] = tested on: ACHN renal
[31] = tested on: UACC-257 melanoma
[32] = tested on: SK-MEL-5 melanoma
[33] = tested on: NCI-H23 lung
[34] = tested on: MCF7 breast
[35] = tested on: SN12C renal
[36] = tested on: A498 renal
[37] = tested on: U251 CNS
[38] = tested on: K-562 leukemia
[39] = tested on: RXF 393 renal
[40] = tested on: BT-549 breast
[41] = tested on: DU-145 prostate
[42] = tested on: HOP-92 NSCLC
[43] = tested on: NCI-H460 lung
[44] = tested on: CAKI-1 renal
[45] = tested on: UACC-62 melanoma
[46] = tested on: PC-3 prostate
[47] = tested on: COLO 205 colon
[48] = tested on: MOLT-4 leukemia
[49] = tested on: LOX IMVI melanoma
[50] = tested on: KM12 colon
[51] = tested on: OVCAR-3 ovarian
[52] = tested on: HL-60(TB) leukemia

Measured: TGI

CCNC12CCC(C1)C(C)(C)C2=O (configuration not stated)
> 100 µM: all assays above
